Converted amounts (≈) assume the structure as drawn.
What was measured:
[1] = Antitumor activity against patient derived STO357 PDX cells xenografted in mouse assessed as downregulation of ERK phosphorylation at 15 mg/kg,po administration and measured after 7 hrs by MSD assay; type: functional, Homo sapiens
SNU-16 [2] = assay: Antitumor activity against human SNU-16 cells xenografted in mouse assessed as tumor growth inhibition at 5 mg/kg,po administrated once daily for 3 weeks relative to control; type: functional; conditions: SNU-16, 504 h, read-out: TGI
[3] = Toxicity in mouse xenografted with patient derived STO357 PDX cells assessed as body weight change at 5 to 15 mg/kg,po administrated once daily for 3 weeks; type: organism-based; conditions: in vivo, 504 h, dose 5-15 mg/kg
[4] = Lipophilicity, logP of compound; type: physicochemical; conditions: octanol/water
RT-112 [5] = assay: Antitumor activity against human RT-112 cells xenografted in mouse assessed as inhibition of tumor growth at po administrated once daily for 3 weeks; type: functional, organism-based
RT-112 [6] = assay: Antitumor activity against human RT-112 cells xenografted in mouse assessed as tumor growth inhibition at 15 mg/kg,po administrated once daily for 3 weeks relative to control; type: functional; conditions: RT-112, 504 h, read-out: TGI
[7] = AUC (0 to 24 hrs) in Beagle dog at 15 mg/kg,po administrated at 0.25 to 24 hrs by LC-MS/MS analysis; type: ADME, organism-based, Canis lupus familiaris; conditions: in vivo, time 0.25-24 hrs
[8] = Unbound drug concentration in mouse plasma xenografted with patient derived STO357 PDX cells at 15 mg/kg,po administration and measured after 15 mins by LC-MS/MS analysis; type: ADME, organism-based; conditions: in vivo, 0.25 h
[9] = Oral bioavailability in Sprague-Dawley rat at 15 mg/kg administrated at 0.25 to 24 hrs by LC-MS/MS analysis; type: ADME, organism-based; conditions: in vivo, time 0.25-24 hrs
[10] = Oral bioavailability in Beagle dog at 15 mg/kg administrated at 0.25 to 24 hrs by LC-MS/MS analysis; type: ADME, organism-based, Canis lupus familiaris; conditions: in vivo, time 0.25-24 hrs
SNU-16 [11] = assay: Antitumor activity against human SNU-16 cells xenografted in mouse assessed as tumor growth inhibition at 15 mg/kg,po administrated once daily for 3 weeks relative to control; type: functional; conditions: SNU-16, 504 h, read-out: TGI
RT-112 [12] = assay: Antitumor activity against human RT-112 cells xenografted in mouse assessed as tumor growth inhibition at 2 mg/kg,po administrated once daily for 3 weeks relative to control; type: functional; conditions: RT-112, 504 h, read-out: TGI
[13] = Half life in Beagle dog at 5 mg/kg,iv administrated at 0.25 to 24 hrs by LC-MS/MS analysis; type: ADME, organism-based, Canis lupus familiaris; conditions: in vivo, time 0.25-24 hrs
[14] = Total clearance in Beagle dog at 5 mg/kg,iv administrated at 0.25 to 24 hrs by LC-MS/MS analysis; type: ADME, organism-based, Canis lupus familiaris; conditions: in vivo, time 0.25-24 hrs
[15] = Intrinsic clearance in human liver microsomes; type: ADME, Microsome; conditions: read-out: CLH
SNU-16 [16] = assay: Antitumor activity against human SNU-16 cells xenografted in mouse assessed as tumor growth inhibition at 2 mg/kg,po administrated once daily for 3 weeks relative to control; type: functional; conditions: SNU-16, 504 h, read-out: TGI
[17] = Cmax in Beagle dog at 15 mg/kg,po administrated at 0.25 to 24 hrs by LC-MS/MS analysis; type: ADME, organism-based, Canis lupus familiaris; conditions: in vivo, time 0.25-24 hrs
[18] = Antitumor activity against patient derived STO357 PDX cells xenografted in mouse assessed as downregulation of ERK phosphorylation at 5 mg/kg,po administration and measured after 7 hrs by MSD assay; type: functional, Homo sapiens
[19] = Half life in Sprague-Dawley rat at 5 mg/kg,iv administrated at 0.25 to 24 hrs by LC-MS/MS analysis; type: ADME, organism-based; conditions: in vivo, time 0.25-24 hrs
[20] = Aqueous solubility of the compound at pH 7.4; type: physicochemical
[21] = Unbound drug concentration in mouse plasma xenografted with patient derived STO357 PDX cells at 15 mg/kg,po administration and measured after 1 hr by LC-MS/MS analysis; type: ADME, organism-based; conditions: in vivo
[22] = Dissociation constant, pKa of the compound; type: physicochemical
[23] = Antitumor activity against patient derived STO357 PDX cells xenografted in mouse assessed as tumor growth inhibition at 5 mg/kg,po administrated once daily for 3 weeks relative to control; type: functional; conditions: Homo sapiens, 504 h, read-out: TGI
[24] = Toxicity in mouse xenografted with human SNU-16 cells assessed as body weight change at 2 to 15 mg/kg,po administrated once daily for 3 weeks; type: organism-based; conditions: in vivo, 504 h, dose 2-15 mg/kg
[25] = Intrinsic clearance in human hepatocyte measured per 10^6 cells; type: ADME, cell-based; conditions: hepatocytes, read-out: CLH
RT-112 [26] = assay: Antitumor activity against human RT-112 cells xenografted in mouse assessed as tumor growth inhibition at 5 mg/kg,po administrated once daily for 3 weeks relative to control; type: functional; conditions: RT-112, 504 h, read-out: TGI
[27] = Aqueous solubility of the compound at pH 2; type: physicochemical
[28] = Unbound drug concentration in mouse plasma xenografted with patient derived STO357 PDX cells at 15 mg/kg,po administration and measured after 12 hr by LC-MS/MS analysis; type: ADME, organism-based; conditions: in vivo
[29] = Solubility of compound in FaSSIF; type: ADME
[30] = Cmax in Sprague-Dawley rat at 15 mg/kg,po administrated at 0.25 to 24 hrs by LC-MS/MS analysis; type: ADME, organism-based; conditions: in vivo, time 0.25-24 hrs
[31] = AUC (0 to 24 hrs) in Sprague-Dawley rat at 15 mg/kg,po administrated at 0.25 to 24 hrs by LC-MS/MS analysis; type: ADME, organism-based; conditions: in vivo, time 0.25-24 hrs
[32] = Toxicity in mouse xenografted with human RT-112 cells assessed as body weight loss at 15 mg/kg,po administrated once daily for 3 weeks; type: organism-based; conditions: in vivo, 504 h
[33] = Solubility of compound in SGF; type: ADME
[34] = Total clearance in Sprague-Dawley rat at 5 mg/kg,iv administrated at 0.25 to 24 hrs by LC-MS/MS analysis; type: ADME, organism-based; conditions: in vivo, time 0.25-24 hrs
[35] = Solubility of compound in FeSSIF; type: ADME
SNU-16 [36] = assay: Antitumor activity against human SNU-16 cells xenografted in mouse assessed as inhibition of tumor growth at po administrated once daily for 3 weeks; type: functional, organism-based
RT-112 [37] = assay: Antiproliferative activity against human RT-112 cells expressing FGFR3 K650M mutant assessed as inhibition of cell growth incubated for 5 days by Cell-titer glo assay; conditions: RT-112, 120 h
SNU-16 [38] = assay: Antiproliferative activity against human SNU-16 cells assessed as inhibition of cell growth incubated for 5 days by Cell-titer glo assay; conditions: SNU-16, 120 h
RT-112 [39] = assay: Antiproliferative activity against human RT-112 cells expressing FGFR3 N540K mutant assessed as inhibition of cell growth incubated for 5 days by Cell-titer glo assay; conditions: RT-112, 120 h
[40] = Antiproliferative activity against human ICC13-7 cells expressing FGFR2 V565F mutant assessed as inhibition of cell growth incubated for 10 days by Cell-titer glo assay; conditions: ICC13-7, 240 h
[41] = Antiproliferative activity against human ICC13-7 cells expressing FGFR2 N550K mutant assessed as inhibition of cell growth incubated for 10 days by Cell-titer glo assay; conditions: ICC13-7, 240 h
RT-112 [42] = assay: Antiproliferative activity against human RT-112 cells assessed as inhibition of cell growth incubated for 5 days by Cell-titer glo assay; conditions: RT-112, 120 h
[43] = Antitumor activity against patient derived STO357 PDX cells xenografted in mouse assessed as tumor growth inhibition at 1 mg/kg,po administrated once daily for 3 weeks relative to control; type: functional; conditions: Homo sapiens, 504 h, read-out: TGI
RT-112 [44] = assay: Antiproliferative activity against human RT-112 cells expressing FGFR3 assessed as inhibition of cell growth incubated for 5 days by Cell-titer glo assay; conditions: RT-112, 120 h
[45] = Antiproliferative activity against human ICC13-7 cells assessed as inhibition of cell growth incubated for 3 days by Cell-titer glo assay; conditions: ICC13-7, 72 h
CC-LP-1 [46] = assay: Antiproliferative activity against human CC-LP-1 cells assessed as inhibition of cell growth incubated for 3 days by Cell-titer glo assay; conditions: CC-LP-1, 72 h
CC-LP-1 [47] = assay: Antiproliferative activity against human CC-LP-1 cells expressing FGFR2 V565F mutant assessed as inhibition of cell growth incubated for 3 days by Cell-titer glo assay; conditions: CC-LP-1, 72 h
CC-LP-1 [48] = assay: Antiproliferative activity against human CC-LP-1 cells expressing FGFR2 N550H mutant assessed as inhibition of cell growth incubated for 3 days by Cell-titer glo assay; type: functional, cell-based; conditions: CC-LP-1, 72 h
CC-LP-1 [49] = assay: Antiproliferative activity against human CC-LP-1 cells expressing FGFR2 N550K mutant assessed as inhibition of cell growth incubated for 3 days by Cell-titer glo assay; conditions: CC-LP-1, 72 h
RT-112 [50] = assay: Antiproliferative activity against human RT-112 cells expressing FGFR3 V555M mutant assessed as inhibition of cell growth incubated for 5 days by Cell-titer glo assay; conditions: RT-112, 120 h

SMILES: C=CC(=O)N1C[C@@H](n2nc(C#Cc3c(F)cc4c(ncn4C4CC4)c3F)c(C(N)=O)c2NC)C[C@@H]1COC [RESIGRATINIB]
- Activity [1]: 75%
- inhibition in vivo at 5 mg/kg (SNU-16 [2]): 81%
- Activity [3]: Non-Toxic
- logP [4]: 2.5
- Activity (RT-112 [5]): Dose-Dependent Effect
- inhibition in vivo at 15 mg/kg (RT-112 [6]): 99%
- AUC(0-t) [7]: 2100 ng·h/mL
- Cp(f) [8]: ~ 100 ng/ml
- bioavailability [9]: 24.3%
- bioavailability [10]: 17.5%
- inhibition in vivo at 15 mg/kg (SNU-16 [11]): 93%
- inhibition in vivo at 2 mg/kg (RT-112 [12]): 80%
- half-life [13]: 6.89 h
- clearance [14]: 23.9 mL/min/kg
- microsomal CLint [15]: 59.6 µL/min/mg
- inhibition in vivo at 2 mg/kg (SNU-16 [16]): 69%
- Cmax [17]: 815 ng/mL
- Activity [18]: 25%
- half-life [19]: 5.46 h
- solubility [20]: 69.7 µM (≈ 36.5 µg/mL)
- Cp(f) [21]: ~ 50 ng/ml
- pKa [22]: 2.22
- inhibition in vivo at 5 mg/kg [23]: 90%
- Activity [24]: Non-Toxic
- hepatocyte CLint [25]: 7.2 µL/min/1e6 cells
- inhibition in vivo at 5 mg/kg (RT-112 [26]): 91%
- solubility [27]: 301 µM (≈ 158 µg/mL)
- Drug uptake(free) [28]: Not Active
- solubility [29]: 400 µg/mL (≈ 764 µM)
- Cmax [30]: 1490 ng/mL
- AUC(0-t) [31]: 3740 ng·h/mL
- Activity [32]: 5.4%
- solubility [33]: 800 µg/mL (≈ 1530 µM)
- clearance [34]: 16.1 mL/min/kg
- solubility [35]: 300 µg/mL (≈ 573 µM)
- Activity (SNU-16 [36]): Dose-Dependent Effect

SMILES: CCN1C(=O)N(c2c(F)c(OC)cc(OC)c2F)Cc2cnc3[nH]c(CN4CCOCC4)cc3c21 [PEMIGATINIB]
- IC50 (RT-112 [37]): 174 nM
- IC50 (SNU-16 [38]): 3.9 nM
- IC50 (RT-112 [39]): 1880 nM
- IC50 [40]: > 2350 nM
- IC50 [41]: 416 nM
- IC50 (RT-112 [42]): 3.3 nM
- inhibition in vivo at 1 mg/kg [43]: 57%
- IC50 (RT-112 [44]): 6 nM
- IC50 [45]: 2.6 nM
- IC50 (CC-LP-1 [46]): 3.6 nM
- IC50 (CC-LP-1 [47]): 1630 nM
- IC50 (CC-LP-1 [48]): 48.7 nM
- IC50 (CC-LP-1 [49]): 493 nM
- IC50 (RT-112 [50]): > 1150 nM

From ChEMBL document CHEMBL5537196, “Discovery of KIN-3248, An Irreversible, Next Generation FGFR Inhibitor for the Treatment of Advanced Tumors Harboring FGFR2 and/or FGFR3 Gene Alterations” (J Med Chem, 2024)
